From patent US20030228365A1, “Pharmaceutical formulation” (priority 2002, published 2003)
Where a SMILES comes first, the peptide text is derived from it.

Method: A sample of the compound of formula (Ia) in PLG gel was dissolved in aqueous acetonitrile and further diluted with water. The precipitated polymer was subsequently removed by filtration through a membrane filter. The concentration of the compound of formula (Ia) in the filtrate was determined by HPLC.

**Q.** With `CCC[C@H](NC(=O)[C@@H](NC(=O)[C@H](NC(=O)[C@@H](NC(=O)CNC(=O)CN(C)C(C)=O)C(C)C)[C@H](C)CC)[C@@H](C)O)C(=O)N[C@H](C(=O)N[C@@H](CCCN=C(N)N)C(=O)N1CCC[C@H]1C(=O)NCC)[C@@H](C)CC` [compound of formula (Ia), N-Ac-Sar-Gly-Val-DIle-Thr-Nva-Ile-Arg-ProNHCH2CH3] (HELM PEPTIDE1{[ac].[Sar].G.V.[dI].T.[Nva].I.R.P.[CCN[*:1]]}$$$$V2.0) as the compound, how does the “degradation found by HPLC” value read?
**A.** The value was “no extensive degradation”.
